From patent US20140023611A1 (priority 2010, published 2014)

Columns and labels:
[1] = molecular target: T1, human NaP2b (SLC34A2) (Homo sapiens, UniProt O95436); experiment: Inhibition of NaP2b-mediated Pi (33P) uptake in transfected HEK293 cells, human NaP2b; format: cell-based; details: read-out: pIC50 range for human NaP2b (converted)
T1 construct: host or cells: HEK293
T1 sequence (O95436 1-690): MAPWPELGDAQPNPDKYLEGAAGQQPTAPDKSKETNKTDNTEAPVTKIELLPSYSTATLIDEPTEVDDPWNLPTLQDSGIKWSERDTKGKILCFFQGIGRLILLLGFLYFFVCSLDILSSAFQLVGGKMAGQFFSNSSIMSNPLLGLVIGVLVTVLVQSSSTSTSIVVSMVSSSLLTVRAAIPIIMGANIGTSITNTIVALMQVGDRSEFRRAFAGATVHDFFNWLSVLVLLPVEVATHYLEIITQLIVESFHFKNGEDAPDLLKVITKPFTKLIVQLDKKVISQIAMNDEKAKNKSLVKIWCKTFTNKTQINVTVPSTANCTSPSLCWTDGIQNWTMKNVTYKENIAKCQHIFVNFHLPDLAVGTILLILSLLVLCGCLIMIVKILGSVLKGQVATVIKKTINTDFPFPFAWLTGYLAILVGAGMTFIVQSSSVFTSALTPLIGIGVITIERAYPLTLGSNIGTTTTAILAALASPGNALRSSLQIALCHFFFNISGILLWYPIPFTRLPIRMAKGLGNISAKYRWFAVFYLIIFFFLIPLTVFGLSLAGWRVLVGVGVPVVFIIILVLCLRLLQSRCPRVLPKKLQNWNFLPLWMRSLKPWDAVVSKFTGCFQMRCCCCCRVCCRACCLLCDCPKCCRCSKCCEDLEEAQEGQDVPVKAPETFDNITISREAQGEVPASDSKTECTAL
Experimental: HEK293 cells were obtained from the American Type Culture collection and propagated per their instructions. Expression clones for rat and human NaP2b (SLC34A2) were obtained from Open Biosystems (Catalog numbers MRN1768-9510282, and MHS1010-99823026, respectively). The sequence of the human protein was mutated to insert a threonine after residue 37, and to introduce a N39D mutation.
The rate of phosphate (Pi) uptake into HEK293 cells was measured using a modification of the method described by Mohrmann et al. (Mohrmann, I., Mohrmann, M., Biber, J., and Murer, H. (1986) Am. J. Phys. 250(3 Pt 1):G323-30.) Transfected HEK293 cells were treated with a pharmacological agent to minimize endogenous PiT-mediated phosphate transport activity, such that the only remaining sodium-dependent phosphate transport activity is that which was bestowed by introduction of the NaP2b genes.
Cells were seeded into 96-well plates at 25,000 cells/well and cultured overnight. Lipofectamine 2000 (Invitrogen) was used to introduce the NaP2b cDNA, and the cells were allowed to approach confluence during a second overnight incubation. […] Cells were then overlayed with either choline uptake buffer or sodium uptake buffer (14 mM Tris, 137 mM sodium chloride, 5.4 mM KCl, 2.8 mM CaCl2, 1.2 mM MgSO4, 100 uM KH2PO4, PiT-silencing agent, 1 mg/mL Bovine Serum Albumin, pH 7.4) containing 6-9 uCi/mL ^33P orthophosphoric acid (Perkin Elmer) and test compound. Each compound was tested at twelve concentrations ranging from 0.1 nM to 30 uM. Assays were run in duplicate.
After incubation for 3-30 minutes at room temperature, assay mixtures were removed, and the cells were washed twice with ice cold stop solution (137 mM sodium chloride, 14 mM Tris, pH 7.4). Cells were lysed by addition of 20 μL 0.1% Tween 80 followed by 100 μL scintillation fluid, and counted using a TopCount (Perkin Elmer).
pIC50 (the negative log of the IC50) values of the test compounds were calculated using GraphPad Prism.

[2] = molecular target: T2, rat NaP2b (SLC34A2) (Rattus norvegicus, UniProt Q9JJ09); experiment: Inhibition of NaP2b-mediated Pi (33P) uptake in transfected HEK293 cells, rat NaP2b; format: cell-based; details: 33P Pi uptake, 0.1 mM phosphate, value given as pIC50 range
T2 construct: host or cells: HEK293
T2 sequence (Q9JJ09 1-695): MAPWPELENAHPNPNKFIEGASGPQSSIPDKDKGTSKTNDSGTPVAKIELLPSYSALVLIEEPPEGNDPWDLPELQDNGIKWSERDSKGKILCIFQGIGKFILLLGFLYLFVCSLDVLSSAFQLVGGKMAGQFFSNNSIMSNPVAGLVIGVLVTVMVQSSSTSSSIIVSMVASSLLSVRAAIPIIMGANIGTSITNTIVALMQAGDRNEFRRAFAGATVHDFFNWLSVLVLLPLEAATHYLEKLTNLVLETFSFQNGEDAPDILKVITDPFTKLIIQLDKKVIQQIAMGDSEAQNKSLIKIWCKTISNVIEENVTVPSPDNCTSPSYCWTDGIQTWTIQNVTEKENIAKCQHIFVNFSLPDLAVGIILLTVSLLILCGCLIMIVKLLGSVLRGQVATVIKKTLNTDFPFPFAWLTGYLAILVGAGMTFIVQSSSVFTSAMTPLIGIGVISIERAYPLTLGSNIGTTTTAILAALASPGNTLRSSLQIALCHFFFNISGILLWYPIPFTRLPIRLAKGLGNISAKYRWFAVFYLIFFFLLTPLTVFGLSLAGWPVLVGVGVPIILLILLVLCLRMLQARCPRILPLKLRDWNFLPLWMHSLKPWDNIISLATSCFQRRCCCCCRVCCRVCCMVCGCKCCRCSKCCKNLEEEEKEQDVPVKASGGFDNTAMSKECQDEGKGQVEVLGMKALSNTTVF
Procedure, shortened: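 HEK293 cells were transiently transfected with NaP2b cDNA using Lipofectamine and grown near confluence. Compounds were tested at twelve concentrations from 0.1 nM to 30 uM in duplicate, and 33P-phosphate uptake was counted by scintillation after lysis. Results are expressed as pIC50.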

SMILES	IC50 [1]	IC50 [2]
CN(CCN1CCCN(C(=O)OC(C)(C)C)CC1)C(=O)c1cccc(C(=O)Nc2ccc(N3CCCCC3)cc2-c2cc(C(=O)N[C@H]3CCCc4ccccc43)ccn2)c1 [Example 219, (S)-tert-butyl 4-(2-(N-methyl-3-(4-(piperidin-1-yl)-2-(4-(1,2,3,4-tetrahydronaphthalen-1-ylcarbamoyl)pyridin-2-yl)phenylcarbamoyl)benzamido)ethyl)-1,4-diazepane-1-carboxylate]	< 1000 nM	< 1000 nM
CN(CCN1CCCN(S(C)(=O)=O)CC1)C(=O)c1cccc(C(=O)Nc2ccc(N3CCCCC3)cc2-c2cc(C(=O)N[C@H]3CCCc4ccccc43)ccn2)c1 [Example 220, (S)—N1-methyl-N1-(2-(4-(methylsulfonyl)-1,4-diazepan-1-yl)ethyl)-N3-(4-(piperidin-1-yl)-2-(4-(1,2,3,4-tetrahydronaphthalen-1-ylcarbamoyl)pyridin-2-yl)phenyl)isophthalamide]	1000 to 7940 nM	< 1000 nM
CCN(CC)c1ccc(NC(=O)c2cccc(C(=O)N(C)CCN(C)CCOCCOCCOCCN=[N+]=[N-])c2)c(-c2cc(C(=O)N[C@H]3CCCc4ccccc43)ccn2)c1 [Example 222, (S)—N1-(14-azido-3-methyl-6,9,12-trioxa-3-azatetradecyl)-N3-(4-(diethylamino)-2-(4-(1,2,3,4-tetrahydronaphthalen-1-ylcarbamoyl)pyridin-2-yl)phenyl)-N1-methylisophthalamide]	< 1000 nM	< 1000 nM
CCN(CC)c1ccc(NC(=O)c2cccc(C(=O)N(C)CCN(C)CCOCCOCCOCCNC(=O)NCCN3CCOCC3)c2)c(-c2cc(C(=O)N[C@H]3CCCc4ccccc43)ccn2)c1 [Example 223, (S)—N1-(4-(diethylamino)-2-(4-(1,2,3,4-tetrahydronaphthalen-1-ylcarbamoyl)pyridin-2-yl)phenyl)-N3-methyl-N3-(17-methyl-1-morpholino-4-oxo-8,11,14-trioxa-3,5,17-triazanonadecan-19-yl)isophthalamide]	> 31600 nM	10000 to 31600 nM
CCN(CC)c1ccc(NC(=O)c2cccc(C(=O)N(C)CCN(C)CCOCCOCCOCCNS(C)(=O)=O)c2)c(-c2cc(C(=O)N[C@H]3CCCc4ccccc43)ccn2)c1 [Example 226, 3-N-[4-(diethylamino)-2-(4-{[(1S)-1,2,3,4-tetrahydronaphthalen-1-yl]carbamoyl}pyridin-2-yl)phenyl]-1-N-(1-methanesulfonamido-12-methyl-3,6,9-trioxa-12-azatetradecan-14-yl)-1-N-methylbenzene-1,3-dicarboxamide]	1000 to 7940 nM	< 1000 nM
CCN(CC)c1ccc(NC(=O)c2cccc(C(=O)N(C)CCN3CCN(C(=O)COCCOCCOCCOCCOCCOCCOCCOC)CC3)c2)c(-c2cc(C(=O)N[C@H]3CCCc4ccccc43)ccn2)c1 [Example 227, (S)—N1-(2-(4-2,5,8,11,14,17,20,23-octaoxapentacosanepiperazin-1-yl)ethyl)-N3-(4-(diethylamino)-2-(4-(1,2,3,4-tetrahydronaphthalen-1-ylcarbamoyl)pyridin-2-yl)phenyl)-N1-methylisophthalamide]	1000 to 7940 nM	1000 to 7940 nM
CN(CCN1CCN(C(=O)N(C)CCOCCOCCOCCC(=O)OC(C)(C)C)CC1)C(=O)c1cccc(C(=O)Nc2ccc(N3CCCCC3)cc2-c2cc(C(=O)N[C@H]3CCCc4ccccc43)ccn2)c1 [Example 229, tert-butyl 3-[2-(2-{2-[methyl(4-{2-[N-methyl-1-(3-{[4-(piperidin-1-yl)-2-(4-{[(1S)-1,2,3,4-tetrahydronaphthalen-1-yl]carbamoyl}pyridin-2-yl)phenyl]carbamoyl}phenyl)formamido]ethyl}piperazin-1-yl)carbonylamino]ethoxy}ethoxy)ethoxy]propanoate]	< 1000 nM	< 1000 nM
